# No end group written: not given here.
# Test system: E. coli Rosetta DE3 pLysS
# Assay: MIC, liquid broth microdilution assay
# Format: cell-based, Escherichia coli
# Conditions: 25% MHBII, 7.5 × 10^6 CFU/mL, 20 ± 2 h at 37 °C, turbidity at 600 nm, at least twice in triplicates
# Protocol: Minimal inhibitory concentrations (MICs) were determined at least twice in triplicates, using a liquid broth microdilution assay in sterile 96-well plates and a total volume of 100 μL per well. Aqueous peptide solutions were serially two-fold diluted in 50 µL of 25% MHBII or LB medium (Luria/Miller). Overnight cultures were diluted in 25% MHBII or LB medium (Luria/Miller) to 1.5 × 10^7 cells per mL and an aliquot of 50 μL was added to each well. The final cell count in each well was 7.5 × 10^6 CFU/mL. The plates were incubated for 20 ± 2 h at 37 °C. The turbidity of each well was measured at 600 nm.
sequence,measurement,value
GNNRPIYIPRPRPPHPRPIRV [Api805],MIC,4 µg/mL
GNNRPVYIPRPRPPHPRL [Api801],MIC,2 µg/mL

# Reference: PMC9221748, “Construction and Characterization of T7 Bacteriophages Harboring Apidaecin-Derived Sequences” (Current Issues in Molecular Biology, 2022)
